In patent US10227345B2, “Compounds and methods for inhibiting fascin” (Cornell University, priority 2014, dated 2019):

Molecular target: T1, human fascin 1 (Homo sapiens, UniProt Q16658)
T1 construct: GST (N, cleaved yes); made in house; host or cells: Escherichia coli BL21/DE3 (pGEX4T-fascin 1 plasmid)
Test: Fascin inhibition (actin bundling) assay, image-based
Type: biochemical
Details: in the presence of 50 μm of the compound relative to bundle activity when the compound was not present; read-out: Inhibition (percentage reduction of bundle activity)
Experimental: Recombinant human fascin 1 was expressed as a GST fusion protein in BL21 Escherichia coli. One liter of 2YT medium with ampicillin was inoculated overnight with 3 mL of BL21/DE3 culture transformed with pGEX4T-fascin 1 plasmid and grown at 37° C. until attenuance at 600 nm (D600) reached about 0.8. The culture was then transferred to 18° C. and induced by the addition of 0.1 mM isopropyl β-d-thiogalactoside (IPTG) for 12 h. Bacteria were harvested by centrifugation at 5,000 r.p.m. for 10 min. The pellets were suspended in 30 mL of PBS supplemented with 0.2 mM PMSF, 1 mM DTT, 1% (v/v) Triton X-100 and 1 mM EDTA. After sonication, the suspension was centrifuged at 15,000 r.p.m. for 30 min to remove the cell debris. The supernatant was then incubated for 2 h with 4 mL of glutathione beads (Sigma) at 4° C. After extensive washing with PBS, the beads were resuspended in 10 mL of thrombin cleavage buffer (20 mM Tris-HCl pH 8.0, 150 mM NaCl, 2 mM CaCl2, 1 mM DTT). Fascin was released from the beads by incubation overnight with 40-100 U of thrombin at 4° C. After centrifugation, 0.2 mM PMSF was added to the supernatant to inactivate the remnant thrombin activity. The fascin protein was further concentrated with a Centricon® (Boca Raton, Fla.) filter to about 50 mg/mL.
Representative compounds described herein were tested for fascin inhibition activity. Purified fascin protein (15 μL of 0.5 μM) in buffer (100 mM KCl, 20 mM Tris/HCl, pH 7.5, 2 mM MgCl2) was added into each well of a clear 384-well flat-bottom plate (Corning) using Thermo Multidrop Combi (Fisher). Compound solutions (5 mM stock, 180 nL) were pin transferred from stock 384-well plates into the 384-well assay plates and incubated for 30 min. Then 15 μL of 0.5 μM polymerized actin (in 100 mM KCl, 20 mM Tris/HCl, pH 7.5, 2 mM MgCl2, 1 mM DTT, 1 mM ATP) (Cytoskeleton Inc.) was added, resulting in 30 μM final concentration for chemical compounds. […] Mixed solution (25 μL) was then transferred to one well in a black 384-well plate coated with poly-D-lysine, and stained actin bundles or F-actin would stick onto the poly-D-lysine plates. After the plates were thoroughly washed with 1×PBS for 3 times, the plate was imaged using an ImageXpress Micro High Content Screening System (Molecular devices). The images were processed and analyzed using MetaMorph software. The raw image data for each well was background-corrected by subtraction of the median intensities across all wells on the plate. The background-corrected data was used to compute the bundle length for each well. The negative control wells were employed for quality control: multiple DMSO-only control wells (16 wells/plate) were present on each assay plate.

Going from Cc1cc(C(=O)Nc2nn(Cc3ccc(C(F)(F)F)cc3)c3ccccc23)oc1C [Compound 1, 4,5-dimethyl-N-(1-(4-(trifluoromethyl)benzyl)-1H-indazol-3-yl)furan-2-carboxamide] to Cc1ocnc1C(=O)Nc1nn(Cc2ccc(C(F)(F)F)cc2)c2ccccc12 [Compound 31, 5-methyl-N-(1-(4-(trifluoromethyl)benzyl)-1H-indazol-3-yl)oxazole-4-carboxamide], the inhibition at 50 µM rises from less than 10% to 60%.

Compared with O=C(Nc1nn(Cc2ccc(C(F)(F)F)cc2)c2ccccc12)c1cc2ccccc2o1 [Compound 2, N-(1-(4-(trifluoromethyl)benzyl)-1H-indazol-3-yl)benzofuran-2-carboxamide], O=C(Nc1nn(Cc2ccc(C(F)(F)F)cc2)c2ccccc12)c1ccccc1Cl [Compound 5, 2-chloro-N-(1-(4-(trifluoromethyl)benzyl)-1H-indazol-3-yl)benzamide] is higher in inhibition at 50 µM: less than 10% for the first, 50% for the second.

Compared with Cc1ccc(-c2ccc(C(=O)Nc3nn(Cc4ccc(C(F)(F)F)cc4)c4ccccc34)o2)cc1 [Compound 3, 5-(p-tolyl)-N-(1-(4-(trifluoromethyl)benzyl)-1H-indazol-3-yl)furan-2-carboxamide], Cc1ccc(C(=O)Nc2nn(Cc3ccc(C(F)(F)F)cc3)c3ccccc23)cc1 [Compound 16] is lower in inhibition at 50 µM: 10% for the first, less than 10% for the second.

First: O=C(Nc1nn(Cc2ccc(C(F)(F)F)cc2)c2ccccc12)c1ccc(Cl)cc1 [Compound 6, 4-chloro-N-(1-(4-(trifluoromethyl)benzyl)-1H-indazol-3-yl)benzamide]
Second: O=C(Nc1nn(Cc2ccc(C(F)(F)F)cc2)c2ccccc12)c1ccc(F)cc1 [Compound 13]
The inhibition at 50 µM of the first is higher: 10% for the first, less than 10% for the second.

First: O=C(Nc1nn(Cc2ccc(C(F)(F)F)cc2)c2ccccc12)c1cccc(Cl)c1 [Compound 7, 3-chloro-N-(1-(4-(trifluoromethyl)benzyl)-1H-indazol-3-yl)benzamide]
Second: O=C(Nc1nn(Cc2ccc(C(F)(F)F)cc2)c2ccccc12)c1cccc(F)c1 [Compound 14, 3-fluoro-N-(1-(4-(trifluoromethyl)benzyl)-1H-indazol-3-yl)benzamide]
The inhibition at 50 µM of the first is higher: 10% for the first, less than 10% for the second.

O=C(Nc1nn(Cc2ccc(C(F)(F)F)cc2)c2ccccc12)c1cccc(Cl)n1 [Compound 8, 6-chloro-N-(1-(4-(trifluoromethyl)benzyl)-1H-indazol-3-yl)picolinamide] and O=C(Nc1nn(Cc2ccc(C(F)(F)F)cc2)c2ccccc12)c1cc(Cl)ccn1 [Compound 18] cannot be ordered by inhibition at 50 µM: less than 10% for the first, less than 10% for the second.

First: O=C(Nc1nn(Cc2ccc(C(F)(F)F)cc2)c2ccccc12)c1cccs1 [Compound 9, N-(1-(4-(trifluoromethyl)benzyl)-1H-indazol-3-yl)thiophene-2-carboxamide]
Second: Cc1ccsc1C(=O)Nc1nn(Cc2ccc(C(F)(F)F)cc2)c2ccccc12 [Compound 23, 3-methyl-N-(1-(4-(trifluoromethyl)benzyl)-1H-indazol-3-yl)thiophene-2-carboxamide]
The inhibition at 50 µM of the first is higher: 60% for the first, less than 10% for the second.

Cc1csc(C(=O)Nc2nn(Cc3ccc(C(F)(F)F)cc3)c3ccccc23)n1 [Compound 11, 4-methyl-N-(1-(4-(trifluoromethyl)benzyl)-1H-indazol-3-yl)thiazole-2-carboxamide] and O=C(Nc1nn(Cc2ccc(C(F)(F)F)cc2)c2ccccc12)c1csc(Cl)n1 [Compound 24, 2-chloro-N-(1-(4-(trifluoromethyl)benzyl)-1H-indazol-3-yl)thiazole-4-carboxamide] cannot be ordered by inhibition at 50 µM: less than 10% for the first, less than 10% for the second.

O=C(Nc1nn(Cc2ccc(C(F)(F)F)cc2)c2ccccc12)c1ccccc1F [Compound 12, 2-fluoro-N-(1-(4-(trifluoromethyl)benzyl)-1H-indazol-3-yl)benzamide] and Cc1ccccc1C(=O)Nc1nn(Cc2ccc(C(F)(F)F)cc2)c2ccccc12 [Compound 15, 2-methyl-N-(1-(4-(trifluoromethyl)benzyl)-1H-indazol-3-yl)benzamide] cannot be ordered by inhibition at 50 µM: less than 10% for the first, less than 10% for the second.

Cc1cccc(C(=O)Nc2nn(Cc3ccc(C(F)(F)F)cc3)c3ccccc23)c1 [Compound 17, 3-methyl-N-(1-(4-(trifluoromethyl)benzyl)-1H-indazol-3-yl)benzamide] and O=C(Nc1nn(Cc2ccc(C(F)(F)F)cc2)c2ccccc12)c1ccc(F)c(F)c1 [Compound 19, 3,4-difluoro-N-(1-(4-(trifluoromethyl)benzyl)-1H-indazol-3-yl)benzamide] cannot be ordered by inhibition at 50 µM: less than 10% for the first, less than 10% for the second.

O=C(Nc1nn(Cc2ccc(C(F)(F)F)cc2)c2ccccc12)c1cccc(F)c1F [Compound 20, 2,3-difluoro-N-(1-(4-(trifluoromethyl)benzyl)-1H-indazol-3-yl)benzamide] and O=C(Nc1nn(Cc2ccc(C(F)(F)F)cc2)c2ccccc12)c1cc(F)ccc1F [Compound 21, 2,5-difluoro-N-(1-(4-trifluoromethyl)benzyl)-1H-(indazol-3-yl)benzamide] cannot be ordered by inhibition at 50 µM: less than 10% for the first, less than 10% for the second.

FC(F)(F)c1ccc(CNc2nn(Cc3ccc(C(F)(F)F)cc3)c3ccccc23)cc1 [Compound 22, N,1-bis(4-(trifluoromethyl)benzyl)-1H-indazol-3-amine] and O=C(Nc1nn(Cc2ccc(C(F)(F)F)cc2)c2ccccc12)c1sccc1F [Compound 37, 3-fluoro-N-(1-(4-(trifluoromethyl)benzyl)-1H-indazol-3-yl)thiophene-2-carboxamide] cannot be ordered by inhibition at 50 µM: less than 10% for the first, less than 10% for the second.

O=C(Nc1nn(Cc2ccc(C(F)(F)F)cc2)c2ccccc12)c1cnc[nH]1 [Compound 26, N-(1-(4-(trifluoromethyl)benzyl)-1H-indazol-3-yl)-1H-imidazole-5-carboxamide] and Cc1cc[nH]c1C(=O)Nc1nn(Cc2ccc(C(F)(F)F)cc2)c2ccccc12 [Compound 27, 3-methyl-N-(1-(4-(trifluoromethyl)benzyl)-1H-indazol-3-yl)-1H-pyrrole-2-carboxamide] cannot be ordered by inhibition at 50 µM: less than 10% for the first, less than 10% for the second.

First: Cc1cnoc1C(=O)Nc1nn(Cc2ccc(C(F)(F)F)cc2)c2ccccc12 [Compound 28, 4-methyl-N-(1-(4-(trifluoromethyl)benzyl)-1H-indazol-3-yl)isoxazole-5-carboxamide]
Second: Cc1ccoc1C(=O)Nc1nn(Cc2ccc(C(F)(F)F)cc2)c2ccccc12 [Compound 29, 3-methyl-N-(1-(4-(trifluoromethyl)benzyl)-1H-indazol-3-yl)furan-2-carboxamide]
The inhibition at 50 µM of the first is higher: 80% for the first, less than 10% for the second.

O=C(Nc1nn(Cc2ccc(C(F)(F)F)cc2)c2ccccc12)c1cscn1 [Compound 30, N-(1-(4-(trifluoromethyl)benzyl)-1H-indazol-3-yl)thiazole-4-carboxamide] and Cc1scnc1C(=O)Nc1nn(Cc2ccc(C(F)(F)F)cc2)c2ccccc12 [Compound 32, 5-methyl-N-(1-(4-(trifluoromethyl)benzyl)-1H-indazol-3-yl)thiazole-4-carboxamide] cannot be ordered by inhibition at 50 µM: less than 10% for the first, less than 10% for the second.

First: Cc1ncoc1C(=O)Nc1nn(Cc2ccc(C(F)(F)F)cc2)c2ccccc12 [Compound 34, 4-methyl-N-(1-(4-(trifluoromethyl)benzyl)-1H-indazol-3-yl)oxazole-5-carboxamide]
Second: O=C(Nc1nn(Cc2ccc(C(F)(F)F)cc2)c2ccccc12)c1ccsc1Cl [Compound 38, 2-chloro-N-(1-(4-(trifluoromethyl)benzyl)-1H-indazol-3-yl)thiophene-3-carboxamide]
The inhibition at 50 µM of the first is higher: 80% for the first, less than 10% for the second.
